Assay [1] concerns the target T1, PDGFRα (Homo sapiens, UniProt P16234).
T1 construct: purchased DiscoverX (KinomeScan service)
The assay is described as follows: KinomeScan Kd determination, PDGFRα. The format is binding. As to conditions: for KdRTK/KdKIT, PDGFRα: Kd PDGFRα over Kd KIT; for Kd: KinomeScan. As to the method: (§1) The compounds were evaluated using the KinomeScan™ platform (http://www.discoverx.com/services/drug-discovery-development-services/kinase-profiling/kinomescan), that measures the ability of the test compound to disrupt the complex between a high affinity ATP-mimic probe immobilized on a solid support and the kinase of interest. The KinomeScan is a very helpful technology for the fast and reliable screening of a number of compounds against a wide and customizable panel of kinases. Besides, it is not based on the use of hazardous radioactive ^32P-ATP and has a very low rate of false positive (<1%)[44]. The screening platform outputs a “Percent of Control” (POC) value, statistically correlated to the dissociation constant (Kd) value (http://www.discoverx.com/tools-resources/leadhunter-study-reports-data-analysis), for each pair of kinase/ligand. The POC is calculated as reported in equation (1): […]
(§2) The ability of compounds 19 and 27 to bind the class III RTK members was measured (Table 2; see also Figs S3 and S4 for dose/response curves).
(§3) Figure S3. Dose/response curve for compound 19 against tested kinases for Kd determination. The amount of kinase measured by qPCR (Signal; y-axis) is plotted against the corresponding compound concentration in nM in log10 scale (x-axis). Data points marked with an "x" were not used for Kd determination.
(§4) (1 picture or pasted object on this page, not shown here)
(§5) Figure S4. Dose/response curve for compound 27 against tested kinases for Kd

In assay [2] the target is T2, FLT3 (Homo sapiens, UniProt P36888).
T2 construct: purchased DiscoverX (KinomeScan service)
T2 sequence (P36888 27-993): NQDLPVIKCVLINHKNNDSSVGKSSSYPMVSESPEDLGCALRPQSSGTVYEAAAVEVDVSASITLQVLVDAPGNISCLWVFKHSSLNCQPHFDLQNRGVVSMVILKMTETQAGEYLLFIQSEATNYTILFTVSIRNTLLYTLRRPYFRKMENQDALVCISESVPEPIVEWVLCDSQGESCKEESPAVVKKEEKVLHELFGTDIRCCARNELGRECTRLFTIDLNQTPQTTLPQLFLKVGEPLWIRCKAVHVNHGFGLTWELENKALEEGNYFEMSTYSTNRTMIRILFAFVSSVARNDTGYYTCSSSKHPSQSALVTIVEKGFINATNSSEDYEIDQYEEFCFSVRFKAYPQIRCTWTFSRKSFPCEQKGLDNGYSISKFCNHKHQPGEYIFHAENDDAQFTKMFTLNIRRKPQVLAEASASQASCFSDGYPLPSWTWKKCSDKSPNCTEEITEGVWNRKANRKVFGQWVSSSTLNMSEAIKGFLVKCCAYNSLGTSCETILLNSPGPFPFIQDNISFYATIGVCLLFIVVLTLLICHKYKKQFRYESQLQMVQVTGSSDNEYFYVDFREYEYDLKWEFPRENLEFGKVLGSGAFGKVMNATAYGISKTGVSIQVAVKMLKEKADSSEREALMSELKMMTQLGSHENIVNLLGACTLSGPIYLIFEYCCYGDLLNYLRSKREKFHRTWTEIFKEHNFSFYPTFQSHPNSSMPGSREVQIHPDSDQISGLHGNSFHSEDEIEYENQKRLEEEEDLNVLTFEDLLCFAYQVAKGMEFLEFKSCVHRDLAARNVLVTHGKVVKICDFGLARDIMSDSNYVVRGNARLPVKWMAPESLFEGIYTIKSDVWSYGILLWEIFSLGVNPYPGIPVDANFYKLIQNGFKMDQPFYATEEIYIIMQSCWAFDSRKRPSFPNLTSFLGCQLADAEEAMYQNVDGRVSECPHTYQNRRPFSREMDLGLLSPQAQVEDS
The assay is described as follows: KinomeScan Kd determination, FLT3. It is filed as binding. The following applies: for KdRTK/KdKIT, FLT3: Kd FLT3 over Kd KIT; for Kd: KinomeScan. As to the method: as §1, §2, §3, §4, §5

In assay [3] the test system is MCF-7 cells. The assay is described as follows: MTT cytotoxicity assay, MCF-7 breast cancer cells. It is filed as cell-based. As to conditions: Homo sapiens, MCF7; MTT test, 72 h; read-out: MCF-7 IC50 (μM) ± SD. As to the method: The cytotoxic profile of 19 and 27 was assessed on a wider panel of human tumor cell lines including also examples of breast (MCF-7), cervical (A431), colorectal (HCT-15), and ovarian (2008) cancers as well as melanoma (A375), besides lung (A549) and pancreatic (BxPC3) cancer cells. IC50 values, calculated from the dose-survival curves obtained after 72 h of drug treatment from the MTT test, are reported in Table 2. […] Both compounds were endowed with a cytotoxic potency higher than that of SU, eliciting IC50 values in the low micromolar range.
All compounds, except derivative 27, were dissolved in DMSO just before the experiment, and a calculated amount of drug solution was added to the cell growth medium to a final solvent concentration of 0.5%, which had no discernible effect on cell killing. Compound 27 was dissolved in a 0.9% NaCl solution just before the experiment.
Human lung (A549), breast (MCF-7), pancreas (BxPC3), and colon (LoVo) carcinoma cell lines along with melanoma (A375) were obtained from American Type Culture Collection (ATCC, Rockville, MD). Human non-tumor embryonic kidney HEK293 cells were obtained from European Collection of Cell Cultures (ECACC, Salisbury, UK). Human cervical carcinoma A431cells were kindly provided by Prof. F. Zunino (Division of Experimental Oncology B, Istituto Nazionale dei Tumori, Milan, Italy). Human ovarian cancer 2008 cells were kindly provided by Prof. G. Marverti (Dept. of Biomedical Science of Modena University, Italy). […]
The growth inhibitory effect towards human cell lines was evaluated by means of MTT (tetrazolium salt reduction) assay. […] After overnight incubation, the inhibition of cell growth induced by the tested complexes was detected by measuring the absorbance of each well at 570 nm using a Bio-Rad 680 microplate reader (Bio-Rad, Hercules, CA). Mean absorbance for each drug dose was expressed as a percentage of the control untreated well absorbance and plotted vs drug concentration.
(In general: Formazan colour is commonly taken as a measure of viable cells.)

Like-named read-outs stand apart in the source and are kept apart here.

T1 sequence (P16234 24-1089): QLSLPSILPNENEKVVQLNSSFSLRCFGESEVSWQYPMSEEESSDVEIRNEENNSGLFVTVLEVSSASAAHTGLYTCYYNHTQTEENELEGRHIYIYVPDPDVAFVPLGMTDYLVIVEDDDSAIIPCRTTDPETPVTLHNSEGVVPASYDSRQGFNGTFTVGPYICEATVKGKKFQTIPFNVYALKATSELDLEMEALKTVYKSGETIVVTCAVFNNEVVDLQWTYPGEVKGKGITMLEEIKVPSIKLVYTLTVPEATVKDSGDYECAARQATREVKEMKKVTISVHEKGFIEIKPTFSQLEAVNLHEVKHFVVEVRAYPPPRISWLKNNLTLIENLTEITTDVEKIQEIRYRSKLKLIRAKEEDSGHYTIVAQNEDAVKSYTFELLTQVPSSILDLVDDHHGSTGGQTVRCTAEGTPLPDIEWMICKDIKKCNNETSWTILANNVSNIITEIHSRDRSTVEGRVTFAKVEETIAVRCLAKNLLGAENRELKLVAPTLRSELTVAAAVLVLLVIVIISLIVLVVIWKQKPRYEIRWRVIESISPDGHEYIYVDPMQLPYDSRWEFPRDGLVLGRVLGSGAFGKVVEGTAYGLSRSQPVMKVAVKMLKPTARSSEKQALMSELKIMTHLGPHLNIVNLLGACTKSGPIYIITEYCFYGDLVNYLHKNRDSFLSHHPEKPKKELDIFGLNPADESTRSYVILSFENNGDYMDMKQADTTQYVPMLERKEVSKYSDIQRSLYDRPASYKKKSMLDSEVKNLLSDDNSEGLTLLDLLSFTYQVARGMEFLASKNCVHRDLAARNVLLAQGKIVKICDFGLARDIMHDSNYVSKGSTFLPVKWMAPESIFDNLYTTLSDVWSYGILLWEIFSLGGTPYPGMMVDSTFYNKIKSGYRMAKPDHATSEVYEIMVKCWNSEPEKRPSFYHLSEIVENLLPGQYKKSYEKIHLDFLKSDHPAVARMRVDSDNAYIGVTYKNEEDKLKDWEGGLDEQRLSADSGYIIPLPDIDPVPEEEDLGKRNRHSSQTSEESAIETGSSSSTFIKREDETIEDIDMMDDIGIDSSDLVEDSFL

For orientation: Kd means the constant that tells how readily two partners part at equilibrium. Usually IC50 stands for the midpoint of a concentration-inhibition curve. On to `O=C(Nc1ccccc1)Nc1ccc(Nc2cc(-c3ccccc3)ncn2)cc1` [Compound 19], for which, in assay [1], the “KdRTK/KdKIT, PDGFRα” value was determined as 44 and the Kd worked out at 960 nM. Moreover, the “KdRTK/KdKIT, FLT3” value in assay [2] came to 209. The dissociation constant (Kd) in assay [2] (read-out: Kd (nM) FLT3) amounted to 4600 nM. Further, in assay [3], the half-inhibitory concentration (IC50) came out at 1.23 ± 0.89 µM.
Regarding `O=C(CN1CCOCC1)Nc1cccc(-c2cc(Nc3ccc(NC(=O)Nc4ccccc4)cc3)ncn2)c1` [Compound 27], the “Potency improvement Kd19/Kd27, PDGFRα” value in assay [1] (27 versus 19) turned out to be 8.7. Moreover, in assay [1], the “KdRTK/KdKIT, PDGFRα” value stood at 11. In addition, the Kd is 110 nM in assay [1]; > 1000 nM in assay [2] (bound stated, read-out: Kd against FLT3); 1300 nM in assay [2] (read-out: Kd (nM) FLT3). The “Potency improvement Kd19/Kd27, FLT3” value in assay [2] (27 versus 19) was 3.5. Further, the “KdRTK/KdKIT, FLT3” value in assay [2] turned out to be 130. In addition, the IC50 in assay [3] was found to be 1.55 ± 0.75 µM.

The values are drawn from article PMC4645160, “Targeting kinases with anilinopyrimidines: discovery of N-phenyl-N’-[4-(pyrimidin-4-ylamino)phenyl]urea derivatives as selective inhibitors of class III receptor tyrosine kinase subfamily” (Scientific Reports, 2015).
